# ChEMBL document CHEMBL2146391, “Glucose uptake stimulatory effect of 4-hydroxypipecolic acid by increased GLUT 4 translocation in skeletal muscle cells” (Bioorg Med Chem Lett, 2012)
# Activity calls are given as the source filed them. No cut-off for these calls is given here.
# How the values were obtained:
# [1] = test system: L6; assay: Hypoglycemic activity in rat L6-GLUT4myc myotubes assessed as increase in 2-[3H]-deoxyglucose uptake at 5 uM after 16 hrs by scintillation counter; type: functional, cell-based
# [2] = test system: L6; assay: Cytotoxicity against rat L6-GLUT4myc myotubes assessed as cell viability at 25 uM after 16 hrs by MTT assay; type: cell-based; settings: l6, 16 h
# [3] = test system: L6; assay: Increase of insulin-stimulated GLUT4 translocation from intracellular compartment into plasma membrane of rat L6-GLUT4myc myotubes at 25 uM after 16 hrs by O-phenylenediamide based enzymatic assay; type: functional, cell-based
# [4] = test system: L6; assay: Induction of GLUT4 translocation from intracellular compartment into plasma membrane of rat L6-GLUT4myc myotubes at 25 uM by O-phenylenediamide based enzymatic assay relative to control; type: functional, cell-based; settings: TDE = time-dependent effect
# [5] = test system: L6; assay: Induction of GLUT4 translocation from intracellular compartment into plasma membrane of rat L6-GLUT4myc myotubes at 25 uM after 16 hrs by O-phenylenediamide based enzymatic assay relative to control; type: functional
# [6] = test system: L6; assay: Increase of insulin-stimulated GLUT4 translocation from intracellular compartment into plasma membrane of rat L6-GLUT4myc myotubes at 25 uM after 16 hrs by O-phenylenediamide based enzymatic assay in presence of PI3K inhibitor wortmannin; type: functional, cell-based
# [7] = test system: L6; assay: Induction of GLUT4 translocation from intracellular compartment into plasma membrane of rat L6-GLUT4myc myotubes after 16 hrs by O-phenylenediamide based enzymatic assay; type: functional, cell-based
# [8] = test system: L6; assay: Induction of GLUT4 translocation from intracellular compartment into plasma membrane of rat L6-GLUT4myc myotubes at 10 uM after 16 hrs by O-phenylenediamide based enzymatic assay; type: functional, cell-based
# [9] = test system: L6; assay: Hypoglycemic activity in rat L6-GLUT4myc myotubes assessed as increase in 2-[3H]-deoxyglucose uptake at 25 uM after 16 hrs by scintillation counter relative to control; type: functional
# [10] = test system: L6; assay: Cytotoxicity against rat L6-GLUT4myc myotubes assessed as change in protein level at 25 uM after 16 hrs; type: cell-based; settings: l6, 16 h
# [11] = test system: L6; assay: Induction of PKB mRNA expression in rat L6-GLUT4myc myotubes at 25 uM after 16 hrs by semiquantitative RT-PCR analysis; type: functional, cell-based
# [12] = test system: L6; assay: Hypoglycemic activity in rat L6-GLUT4myc myotubes assessed as increase in 2-[3H]-deoxyglucose uptake after 16 hrs by scintillation counter; type: functional, cell-based
# [13] = test system: L6; assay: Induction of IRS-1 mRNA expression in rat L6-GLUT4myc myotubes at 25 uM after 16 hrs by semiquantitative RT-PCR analysis; type: functional, cell-based
# [14] = test system: L6; assay: Induction of GLUT4 mRNA expression in rat L6-GLUT4myc myotubes at 25 uM after 16 hrs by semiquantitative RT-PCR analysis; type: functional, cell-based
compound,measurement,setting,value
O=C(O)C1C[C@@H](O)CCN1 (some centres undefined),Activity,[1],Active
same,Activity,[2],Non-toxic
same,Activity,[3],Active
same,Activity,[4],tde
same,Activity,[5],130%
same,Activity,[6],inactive
same,Activity,[7],Dose-dependent effect
same,Activity,[8],Active
same,fold change (FC),[9],1.25
same,Activity,[10],Non-toxic
same,Activity,[11],inactive
same,Activity,[12],Dose-dependent effect
same,Activity,[13],Active
same,Activity,[14],inactive
